How the values were obtained:
[1] = test system: morningglory; experiment: Test B pre/postemergence morningglory; assay type: in vivo, Ipomoea hederacea
Summary of the method: (§1)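 Response is a visual 0-to-10 score relative to untreated plants, where 0 means no effect and 10 means complete control, taken twelve to sixteen days after application. Treatments went onto soil at planting and onto foliage of 1- to 4-leaf plants, using a surfactant-containing non-phytotoxic solvent.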

[2] = test system: pigweed; experiment: Test B pre/postemergence pigweed; assay type: in vivo, Amaranthus retroflexus
Summary of the method: as §1

[3] = test system: wild oat; experiment: Test B pre/postemergence wild oat; assay type: in vivo, Avena fatua
Summary of the method: as §1

[4] = Postemergence, Rate 62 g/ha, scale of 0 to 10, 0 is no effect, 10 is complete control
[5] = Postemergence, Rate 125 g/ha, scale 0 to 10, 0 is no effect, 10 is complete control
[6] = Postemergence, Rate 500 g/ha, scale of 0 to 10 where 0 is no effect and 10 is complete control
[7] = Preemergence, Rate 62 g/ha, scale 0 to 10 (0 no effect, 10 complete control)
[8] = Preemergence, Rate 125 g/ha, scale 0 to 10, 0 is no effect, 10 is complete control
[9] = Preemergence, Rate 500 g/ha, scale of 0 to 10 where 0 is no effect and 10 is complete control
[10] = Rate 250 g/ha, Postemergence, scale of 0 to 10 where 0 is no effect and 10 is complete control
[11] = Preemergence, Rate 62 g/ha, scale of 0 to 10 where 0 is no effect and 10 is complete control
[12] = Preemergence, Rate 250 g/ha, scale of 0 to 10 where 0 is no effect and 10 is complete control
[13] = Rate 62 g/ha, Postemergence, scale of 0 to 10 where 0 is no effect and 10 is complete control
[14] = Rate 125 g/ha, Postemergence, scale 0 to 10
[15] = Rate 125 g/ha, Preemergence, scale of 0 to 10 where 0 is no effect and 10 is complete control
[16] = Rate 500 g/ha, Postemergence, scale 0 to 10
[17] = Postemergence, Rate 500 g/ha, scale 0 to 10, 0 is no effect, 10 is complete control
[18] = Rate 125 g/ha, Postemergence, scale of 0 to 10 where 0 is no effect and 10 is complete control
[19] = Rate 500 g/ha, Postemergence, scale 0 to 10, 0 no effect, 10 complete control

For `CC(C)N(C(=O)n1oc(=O)n(CCC2OCCO2)c1=O)c1ccccc1` [Compound 560], the “Morningglory plant response rating” value [1, 4] was 4, the “Morningglory plant response rating” value [1, 5] was 7 and the “Plant response rating, Morningglory” value [1, 6] was 10. For the same molecule, the “Morningglory plant response rating” value [1, 7] was 0, the “Morningglory plant response rating” value [1, 8] was 0 and the “Morningglory plant response rating (0 to 10 scale)” value ([1]; Preemergence, Rate 250 g/ha) was 3. The “Morningglory plant response rating” value [1, 9] was 3, the “Plant response rating, Morningglory” value [1, 10] was 9 and the “Redroot pigweed plant response rating” value [2, 4] was 2. The “Plant response rating, Redroot pigweed” value [2, 6] was 9, the “Redroot pigweed plant response rating” value [2, 7] was 3 and the “Redroot pigweed plant response rating” value [2, 8] was 8. For the same molecule, the “Redroot pigweed plant response rating (0 to 10 scale)” value ([2]; Preemergence, Rate 250 g/ha) was 9, the “Redroot pigweed plant response rating” value [2, 9] was 9 and the “Plant response rating, Redroot pigweed” value [2, 10] was 8. For the same molecule, the “Wild oats plant response rating” value [3, 4] was 0, the “Plant response rating, Wild oats” value [3, 6] was 2 and the “Wild oats plant response rating” value [3, 7] was 0. The “Wild oats plant response rating” value [3, 8] was 0, the “Wild oats plant response rating (0 to 10 scale)” value ([3]; Preemergence, Rate 250 g/ha) was 5 and the “Wild oats plant response rating” value [3, 9] was 7. For the same molecule, the “Plant response rating, Wild oats” value [3, 10] was 2.
In the case of `COC(=O)Cn1c(=O)on(C(=O)N(c2ccc(F)cc2)C(C)C)c1=O` [Compound 215], the “Morningglory plant response rating” value [1, 11] was 0, the “Morningglory plant response rating” value [1, 12] was 0 and the “Plant response rating, Morningglory” value [1, 9] was 0. The “Morningglory plant response rating” value [1, 13] was 0, the “Morningglory plant response rating” value [1, 14] was 2 and the “Morningglory plant response rating” value [1, 15] was 0. The “Plant response rating (0 to 10; 0 is no effect, 10 is complete control), Morningglory” value ([1]; Rate 250 g/ha, Postemergence) was 3, the “Morningglory plant response rating” value [1, 16] was 3 and the “Redroot pigweed plant response rating” value [2, 11] was 4. The “Redroot pigweed plant response rating” value [2, 12] was 5, the “Plant response rating, Redroot pigweed” value [2, 9] was 6 and the “Redroot pigweed plant response rating” value [2, 13] was 0. For the same molecule, the “Redroot pigweed plant response rating” value [2, 14] was 0, the “Redroot pigweed plant response rating” value [2, 15] was 4 and the “Plant response rating (0 to 10; 0 is no effect, 10 is complete control), Redroot pigweed” value ([2]; Rate 250 g/ha, Postemergence) was 6. The “Redroot pigweed plant response rating” value [2, 16] was 6, the “Wild oats plant response rating” value [3, 11] was 0 and the “Wild oats plant response rating” value [3, 12] was 2. The “Plant response rating, Wild oats” value [3, 9] was 2, the “Wild oats plant response rating” value [3, 13] was 0 and the “Wild oats plant response rating” value [3, 14] was 0. The “Wild oats plant response rating” value [3, 15] was 0 and the “Plant response rating (0 to 10; 0 is no effect, 10 is complete control), Wild oats” value ([3]; Rate 250 g/ha, Postemergence) was 2.
For `CCC=CCn1c(=O)on(C(=O)N(c2ccc(Cl)cc2)C(C)C)c1=O` [Compound 552], the “Morningglory plant response rating” value [1, 4] was 1, the “Morningglory plant response rating” value [1, 5] was 1 and the “Plant response rating, Morningglory” value [1, 17] was 7. The “Morningglory plant response rating” value [1, 7] was 0, the “Morningglory plant response rating” value [1, 8] was 0 and the “Morningglory plant response rating (0 to 10 scale)” value ([1]; Preemergence, Rate 250 g/ha) was 0. For the same molecule, the “Morningglory plant response rating” value [1, 9] was 0, the “Plant response rating, Morningglory” value [1, 10] was 2 and the “Redroot pigweed plant response rating” value [2, 4] was 0. For the same molecule, the “Plant response rating, Redroot pigweed” value [2, 17] was 3, the “Redroot pigweed plant response rating” value [2, 7] was 0 and the “Redroot pigweed plant response rating” value [2, 8] was 4. The “Redroot pigweed plant response rating (0 to 10 scale)” value ([2]; Preemergence, Rate 250 g/ha) was 4, the “Redroot pigweed plant response rating” value [2, 9] was 4 and the “Plant response rating, Redroot pigweed” value [2, 10] was 0. The “Wild oats plant response rating” value [3, 4] was 0, the “Plant response rating, Wild oats” value [3, 17] was 3 and the “Wild oats plant response rating” value [3, 7] was 0. The “Wild oats plant response rating” value [3, 8] was 0, the “Wild oats plant response rating (0 to 10 scale)” value ([3]; Preemergence, Rate 250 g/ha) was 0 and the “Wild oats plant response rating” value [3, 9] was 6. The “Plant response rating, Wild oats” value [3, 10] was 0.
With `CC(C)N(C(=O)n1oc(=O)n(-c2ccsc2)c1=O)c1ccc(F)cc1` [Compound 272] the “Morningglory plant response rating” value [1, 11] was 0, the “Morningglory plant response rating” value [1, 12] was 0 and the “Plant response rating, Morningglory” value [1, 9] was 0. The “Morningglory plant response rating” value [1, 18] was 1, the “Morningglory plant response rating” value [1, 15] was 0 and the “Plant response rating, Morningglory” value [1, 10] was 1. For the same molecule, the “Morningglory plant response rating” value [1, 19] was 7, the “Redroot pigweed plant response rating” value [2, 11] was 0 and the “Redroot pigweed plant response rating” value [2, 12] was 0. For the same molecule, the “Plant response rating, Redroot pigweed” value [2, 9] was 3, the “Redroot pigweed plant response rating” value [2, 18] was 0 and the “Redroot pigweed plant response rating” value [2, 15] was 0. The “Plant response rating, Redroot pigweed” value [2, 10] was 2, the “Redroot pigweed plant response rating” value [2, 19] was 4 and the “Wild oats plant response rating” value [3, 11] was 0. For the same molecule, the “Wild oats plant response rating” value [3, 12] was 0, the “Plant response rating, Wild oats” value [3, 9] was 2 and the “Wild oats plant response rating” value [3, 18] was 0. The “Plant response rating, Wild oats” value [3, 10] was 0 and the “Wild oats plant response rating” value [3, 19] was 0.
